Measured values from patent US20230131899A1, “INHIBITORS OF MICROBIALLY INDUCED AMYLOID” (Axial Therapeutics, Inc., priority 2020, published 2023).
Read-outs that look alike come from different tables or passages of the source.

System: CsgA gene expression (csgBAC promoter-GFP reporter) in E. coli UTI89
Assay: In vitro live cell fluorescent reporter assay of CsgA transcription (Reporter Assay)
Type: cell-based
Conditions: Escherichia coli
How it was run: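 Compounds at 0.14–100 μM (1% DMSO final) incubated 20 h at 27 °C in YESCA broth with UTI89 carrying a single-copy GFP reporter under the csgBAC intergenic promoter region, inoculum OD600 0.003. Fluorescence normalized to vehicle wells gave IC50 and 50%-of-vehicle concentration; OD600 reduction >10% flagged growth impact.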

[1] = read-out: Reporter Assay Abs IC50 (activity range), median Abs IC50 in the CsgA reporter assay, class symbol
[2] = read-out: Reporter Assay Abs IC50 (μM), median Abs IC50 in the CsgA reporter assay, N/A = maximum expression reduction is <50% of control
[3] = read-out: Reporter Assay Abs IC50, activity range, class symbol

Compound | IC50 [1] [µM] | IC50 [2] [µM] | IC50 [3] [µM]
O=C(O)c1c(-c2ccccc2)sc2c(-c3cccc(C(F)(F)F)c3)c(Cc3cccc4ccccc34)cc(=O)n12 [Compound 051, 7-(naphthalen-1-ylmethyl)-5-oxo-2-phenyl-8-(3-(trifluoromethyl)phenyl)-5H-thiazolo[3,2-a]pyridine-3-carboxylic acid] | < 1.3 | 1 | –
O=C(O)C1n2c(c(-c3cccc(C(F)(F)F)c3)c(Cc3cccc4ccccc34)nc2=O)SC12CCCC2 (stereo not drawn) [Compound 053, 7′-(naphthalen-1-ylmethyl)-5′-oxo-8′-(3-(trifluoromethyl)phenyl)-3′H,5′H-spiro[cyclopentane-1,2′-thiazolo[3,2-c]pyrimidine]-3′-carboxylic acid] | > 10 | 16.3 | –
O=C(O)C1CSc2c(-c3cccc(C(F)(F)F)c3)c(Cc3cccc4ccccc34)cc(=S)n21 (stereo not drawn) [Compound 054, 7-(naphthalen-1-ylmethyl)-5-thioxo-8-(3-(trifluoromethyl)phenyl)-2,3-dihydro-5H-thiazolo[3,2-a]pyridine-3-carboxylic acid] | 4.6 to 10 | 6.3 | –
O=C(O)C1CN(CCCO)S(=O)(=O)c2c(-c3cccc(C(F)(F)F)c3)c(Cc3cccc4ccccc34)cc(=O)n21 (stereo not drawn) [Compound 056, 2-(3-hydroxypropyl)-8-(naphthalen-1-ylmethyl)-6-oxo-9-(3-(trifluoromethyl)phenyl)-3,4-dihydro-2H,6H-pyrido[1,2-e][1,2,5]thiadiazine-4-carboxylic acid 1,1-dioxide] | > 10 | 19.8 | –
O=C(O)C1CSc2c(-c3cccc(C(F)(F)F)c3)c(Cc3cccc4ccccc34)c(CO)c(=O)n21 (stereo not drawn) [Compound 057, 6-(hydroxymethyl)-7-(naphthalen-1-ylmethyl)-5-oxo-8-(3-(trifluoromethyl)phenyl)-2,3-dihydro-5H-thiazolo[3,2-a]pyridine-3-carboxylic acid] | 4.6 to 10 | 7.1 | –
CC1(C)Sc2c(-c3cccc(C(F)(F)F)c3)c(Cc3cccc4ccccc34)nc(=O)n2C1C(=O)O (stereo not drawn) [Compound 059, 2,2-dimethyl-7-(naphthalen-1-ylmethyl)-5-oxo-8-(3-(trifluoromethyl)phenyl)-2,3-dihydro-5H-thiazolo[3,2-c]pyrimidine-3-carboxylic acid] | > 10 | 21.1 | –
O=C(O)c1c(CCc2ccccc2)sc2c(-c3cccc(C(F)(F)F)c3)c(Cc3cccc4ccccc34)cc(=O)n12 [Compound 062, 7-(naphthalen-1-ylmethyl)-5-oxo-2-phenethyl-8-(3-(trifluoromethyl)phenyl)-5H-thiazolo[3,2-a]pyridine-3-carboxylic acid] | < 1.3 | 0.9 | –
O=C(O)C1COc2c(-c3cccc(C(F)(F)F)c3)c(Cc3cccc4ccccc34)cc(=O)n21 (stereo not drawn) [Compound 064, 7-(naphthalen-1-ylmethyl)-5-oxo-8-(3-(trifluoromethyl)phenyl)-2,3-dihydro-5H-oxazolo[3,2-a]pyridine-3-carboxylic acid] | > 10 | 45.3 | –
O=C(O)C1CN(C[C@H](O)CO)S(=O)(=O)c2c(-c3cccc(C(F)(F)F)c3)c(Cc3cccc4ccccc34)cc(=O)n21 (stereo partly drawn) [Compound 065a, 2-((S)-2,3-dihydroxypropyl)-8-(naphthalen-1-ylmethyl)-6-oxo-9-(3-(trifluoromethyl)phenyl)-3,4-dihydro-2H,6H-pyrido[1,2-e][1,2,5]thiadiazine-4-carboxylic acid 1,1-dioxide] | > 10 | 24.5 | –
Cc1c(Cc2cccc3ccccc23)c(-c2cccc(C(F)(F)F)c2)c2n(c1=O)C(C(=O)O)CN(C)S2(=O)=O (stereo not drawn) [Compound 068, 2,7-dimethyl-8-(naphthalen-1-ylmethyl)-6-oxo-9-(3-(trifluoromethyl)phenyl)-3,4-dihydro-2H,6H-pyrido[1,2-e][1,2,5]thiadiazine-4-carboxylic acid 1,1-dioxide] | > 10 | 11.1 | –
CN1CC(C(=O)O)n2c(c(-c3cccc(C(F)(F)F)c3)c(Cc3cccc4ccccc34)c(NC3CCCC3)c2=O)S1(=O)=O (stereo not drawn) [Compound 070, 7-(cyclopentylamino)-2-methyl-8-(naphthalen-1-ylmethyl)-6-oxo-9-(3-(trifluoromethyl)phenyl)-3,4-dihydro-2H,6H-pyrido[1,2-e][1,2,5]thiadiazine-4-carboxylic acid 1,1-dioxide] | 1.3 to 4.5 | 2.3 | –
CN1CC(C(=O)O)n2c(c(-c3cccc(C(F)(F)F)c3)c(Cc3cccc4ccccc34)c(NCc3ccccc3)c2=O)S1(=O)=O (stereo not drawn) [Compound 071] | 1.3 to 4.5 | 1.6 | –
O=C(O)C1CSc2c(-c3cccc(C(F)(F)F)c3)c(C(F)(F)c3cccc4ccccc34)cc(=O)n21 (stereo not drawn) [Compound 073, 7-(difluoro(naphthalen-1-yl)methyl)-5-oxo-8-(3-(trifluoromethyl)phenyl)-2,3-dihydro-5H-thiazolo[3,2-a]pyridine-3-carboxylic acid] | 4.6 to 10 | 6 | –
CCCN1CC(C(=O)O)n2c(c(-c3cccc(C(F)(F)F)c3)c(C(F)(F)c3cccc4ccccc34)cc2=O)S1(=O)=O (stereo not drawn) [Compound 138, 8-(difluoro(naphthalen-1-yl)methyl)-6-oxo-2-propyl-9-(3-(trifluoromethyl)phenyl)-3,4-dihydro-2H,6H-pyrido[1,2-e][1,2,5]thiadiazine-4-carboxylic acid 1,1-dioxide] | – | 2.5 | 1.3 to 4.5
CCc1c(Cc2cccc3ccccc23)c(-c2cccc(C(F)(F)F)c2)c2n(c1=O)C(C(=O)O)CN2Cc1ccccc1 (stereo not drawn) [Compound 140, 1-benzyl-6-ethyl-7-(naphthalen-1-ylmethyl)-5-oxo-8-(3-(trifluoromethyl)phenyl)-1,2,3,5-tetrahydroimidazo[1,2-a]pyridine-3-carboxylic acid] | – | 1 | < 1.3
CCCN1CC(C(=O)O)n2c(c(-c3cccc(C(F)(F)F)c3)c(Cc3cccc4ccccc34)c(O)c2=O)S1(=O)=O (stereo not drawn) [Compound 141, 7-hydroxy-8-(naphthalen-1-ylmethyl)-6-oxo-2-propyl-9-(3-(trifluoromethyl)phenyl)-3,4-dihydro-2H,6H-pyrido[1,2-e][1,2,5]thiadiazine-4-carboxylic acid 1,1-dioxide] | – | 2.7 | 1.3 to 4.5
CCCN1CC(C(=O)O)n2c(c(-c3cccc(C(F)(F)F)c3)c(Cc3cccc4ccccc34)c(Cl)c2=O)S1(=O)=O (stereo not drawn) [Compound 142, 7-chloro-8-(naphthalen-1-ylmethyl)-6-oxo-2-propyl-9-(3-(trifluoromethyl)phenyl)-3,4-dihydro-2H,6H-pyrido[1,2-e][1,2,5]thiadiazine-4-carboxylic acid 1,1-dioxide] | – | 2.3 | 1.3 to 4.5
CCCN1CC(C(=O)O)n2c(c(-c3cccc(C(F)(F)F)c3)c(Cc3cccc4ccccc34)c(OCC)c2=O)S1(=O)=O (stereo not drawn) [Compound 143, 7-ethoxy-8-(naphthalen-1-ylmethyl)-6-oxo-2-propyl-9-(3-(trifluoromethyl)phenyl)-3,4-dihydro-2H,6H-pyrido[1,2-e][1,2,5]thiadiazine-4-carboxylic acid 1,1-dioxide] | – | 5.2 | 4.6 to 10
